According to ChEMBL document CHEMBL1125524, “Adenosine A1 antagonists. 2. Structure-activity relationships on diuretic activities and protective effects against acute renal failure” (J Med Chem, 1992):

What was measured:
Rattus norvegicus [1] = assay: Oral diuretic activity was measured after oral administration of 0.4 mg/kg to rats(control volume is 0.99+/-0.07); format: functional, Urine
Rattus norvegicus [2] = assay: Serum creatinine concentration measured after intraperitoneal administration of 1 mg/kg of compound to rats(vehicle 3.91+/-0.37); format: functional
Rattus norvegicus [3] = assay: Percent inhibition of Urea nitrogen by the compound given as ratio of UN value in treated to vehicle treated ones after intraperitoneal administration of 1 mg/kg of compound to rats(vehicle 128.9+/-9.3); format: functional; settings: ip
Rattus norvegicus [4] = assay: Ratio of urinary excretion value (Na+ concentration) in treated rats to that in control rats, at a peroral dose of 6.25 mg/Kg; format: functional, Urine
Rattus norvegicus [5] = assay: Ratio of sodium ion/potassium ion concentration in treated rats to that in control rats, at a peroral dose of 1.6 mg/Kg; format: functional
Rattus norvegicus [6] = assay: Urea nitrogen concentration measured after intraperitoneal administration of 1 mg/kg of compound to rats(vehicle 128.9+/-9.3); format: functional
Rattus norvegicus [7] = assay: Ratio of urinary excretion value (urinary volume) in treated rats to that in control rats, at a peroral dose of 0.4 mg/Kg; format: functional, Urine
Rattus norvegicus [8] = assay: Ratio of urinary excretion value (Na+ concentration) in treated rats to that in control rats, at a peroral dose of 1.6 mg/Kg; format: functional, Urine
Rattus norvegicus [9] = assay: Ratio of sodium ion/potassium ion concentration in treated rats to that in control rats, at a peroral dose of 0.4 mg/Kg; format: functional
Rattus norvegicus [10] = assay: Percent inhibition of serum creatinine by the compound given as ratio of Cr value in treated to vehicle treated ones after intraperitoneal administration of 1 mg/kg of compound to rats(vehicle 3.91+/-0.37); format: functional; settings: ip
Adenosine A2 receptor = Adenosine A2 receptor (Rattus norvegicus, UniProt P29276+P30543)
Rattus norvegicus [11] = assay: Ratio of urinary excretion value (Na+ concentration) in treated rats to that in control rats, at a peroral dose of 0.4 mg/Kg; format: functional, Urine
Rattus norvegicus [12] = assay: Ratio of urinary excretion value (urinary volume) in treated rats to that in control rats, at a peroral dose of 6.25 mg/Kg; format: functional, Urine
Rattus norvegicus [13] = assay: Ratio of urinary excretion value (urinary volume) in treated rats to that in control rats, at a peroral dose of 1.6 mg/Kg; format: functional, Urine
Rattus norvegicus [14] = assay: Percent inhibition of Urea nitrogen by the compound given as ratio of UN value in treated to vehicle treated ones after intraperitoneal administration of 1 mg/kg of compound to rats(vehicle 107.7+/-15.2); format: functional; settings: ip
Rattus norvegicus [15] = assay: Oral diuretic activity was measured after oral administration of 1.6 mg/kg to rats(control volume is 0.82+/-0.05); format: functional, Urine
Rattus norvegicus [16] = assay: Percent inhibition of serum creatinine by the compound given as ratio of Cr value in treated to vehicle treated ones after intraperitoneal administration of 1 mg/kg of compound to rats(vehicle 2.89+/-0.42); format: functional; settings: ip
Rattus norvegicus [17] = assay: Urea nitrogen concentration measured after intraperitoneal administration of 1 mg/kg of compound to rats(vehicle 107.7+/-15.2); format: functional
Rattus norvegicus [18] = assay: Effect on urinary excretion potassium and sodium after oral administration of 0.4 mg/kg to rats(potassium and sodium excretion in control rat is 0.191+/-0.021); format: functional, Urine
Rattus norvegicus [19] = assay: Serum creatinine concentration measured after intraperitoneal administration of 1 mg/kg of compound to rats(vehicle 2.89+/-0.42); format: functional
Rattus norvegicus [20] = assay: Effect on urinary excretion potassium and sodium after oral administration of 1.6 mg/kg to rats(potassium and sodium excretion in control rat is 0.183+/-0.012); format: functional, Urine
Rattus norvegicus [21] = assay: Serum creatinine concentration measured after intraperitoneal administration of 0.01 mg/kg of compound to rats(vehicle 4.09+/-0.39); format: functional
Rattus norvegicus [22] = assay: Ratio of urinary excretion value (Na+ concentration) in treated rats to that in control rats, at a peroral dose of 0.01 mg/Kg; format: functional, Urine
Rattus norvegicus [23] = assay: Oral diuretic activity was measured after oral administration of 1.6 mg/kg to rats(control volume is 0.93+/-0.03); format: functional, Urine
Rattus norvegicus [24] = assay: Effect on urinary excretion potassium and sodium after oral administration of 0.01 mg/kg to rats(potassium and sodium excretion in control rat is 0.191+/-0.020); format: functional, Urine
Rattus norvegicus [25] = assay: Serum creatinine concentration measured after intraperitoneal administration of 0.1 mg/kg of compound to rats(vehicle 5.08+/-0.14); format: functional
Rattus norvegicus [26] = assay: Ratio of sodium ion/potassium ion concentration in treated rats to that in control rats, at a peroral dose of 0.1 mg/Kg; format: functional
Rattus norvegicus [27] = assay: Urea nitrogen concentration measured after intraperitoneal administration of 0.01 mg/kg of compound to rats(vehicle 143.9+/-12.2); format: functional
Rattus norvegicus [28] = assay: Percent inhibition of serum creatinine by the compound given as ratio of Cr value in treated to vehicle treated ones after intraperitoneal administration of 0.01 mg/kg of compound to rats(vehicle 4.09+/-0.39); format: functional; settings: ip
Rattus norvegicus [29] = assay: Effect on urinary excretion potassium and sodium after oral administration of 0.1 mg/kg to rats(potassium and sodium excretion in control rat is 0.179+/-0.038); format: functional, Urine
Rattus norvegicus [30] = assay: Oral diuretic activity was measured after oral administration of 0.01 mg/kg to rats(control volume is 1.15+/-0.17); format: functional, Urine
Rattus norvegicus [31] = assay: Percent inhibition of serum creatinine by the compound given as ratio of Cr value in treated to vehicle treated ones after intraperitoneal administration of 0.1 mg/kg of compound to rats(vehicle 5.08+/-0.14); format: functional; settings: ip
Rattus norvegicus [32] = assay: Urea nitrogen concentration measured after intraperitoneal administration of 1 mg/kg of compound to rats(vehicle 171.5+/-7.7); format: functional
Rattus norvegicus [33] = assay: Ratio of urinary excretion value (Na+ concentration) in treated rats to that in control rats, at a peroral dose of 0.1 mg/Kg; format: functional, Urine
Rattus norvegicus [34] = assay: Urea nitrogen concentration measured after intraperitoneal administration of 0.1 mg/kg of compound to rats(vehicle 165.3+/-4); format: functional
Rattus norvegicus [35] = assay: Percent inhibition of Urea nitrogen by the compound given as ratio of UN value in treated to vehicle treated ones after intraperitoneal administration of 0.01 mg/kg of compound to rats(vehicle 143.9+/-12.2); format: functional; settings: ip
Rattus norvegicus [36] = assay: Ratio of urinary excretion value (urinary volume) in treated rats to that in control rats, at a peroral dose of 0.01 mg/Kg; format: functional, Urine
Adenosine receptor A1 = biological target: T1, Adenosine receptor A1 (Cavia porcellus, UniProt P47745)
T1 sequence (P47745 whole entry): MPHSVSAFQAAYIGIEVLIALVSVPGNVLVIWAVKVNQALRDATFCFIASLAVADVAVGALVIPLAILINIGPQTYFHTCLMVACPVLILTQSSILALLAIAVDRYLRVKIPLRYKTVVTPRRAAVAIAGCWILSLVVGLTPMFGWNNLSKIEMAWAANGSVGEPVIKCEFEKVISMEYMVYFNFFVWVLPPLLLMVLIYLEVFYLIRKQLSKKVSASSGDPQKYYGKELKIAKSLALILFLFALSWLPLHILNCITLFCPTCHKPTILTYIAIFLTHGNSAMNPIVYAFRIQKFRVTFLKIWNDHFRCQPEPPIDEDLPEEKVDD
Description: Binding affinity against adenosine A1 receptor in guinea pig forebrain membranes using N6-[3H]cyclohexyladenosine as radioligand

Rattus norvegicus [37] = assay: Serum creatinine concentration measured after intraperitoneal administration of 1 mg/kg of compound to rats(vehicle 4.27+/-0.24); format: functional
Rattus norvegicus [38] = assay: Percent inhibition of Urea nitrogen by the compound given as ratio of UN value in treated to vehicle treated ones after intraperitoneal administration of 0.1 mg/kg of compound to rats(vehicle 165.3+/-4); format: functional; settings: ip
Rattus norvegicus [39] = assay: Percent inhibition of Urea nitrogen by the compound given as ratio of UN value in treated to vehicle treated ones after intraperitoneal administration of 1 mg/kg of compound to rats(vehicle 171.5+/-7.7); format: functional; settings: ip
Rattus norvegicus [40] = assay: Percent inhibition of serum creatinine by the compound given as ratio of Cr value in treated to vehicle treated ones after intraperitoneal administration of 1 mg/kg of compound to rats(vehicle 4.27+/-0.24); format: functional; settings: ip
Rattus norvegicus [41] = assay: Ratio of urinary excretion value (urinary volume) in treated rats to that in control rats, at a peroral dose of 0.1 mg/Kg; format: functional, Urine
Rattus norvegicus [42] = assay: Oral diuretic activity was measured after oral administration of 0.1 mg/kg to rats(control volume is 0.75+/-0.12); format: functional, Urine
Rattus norvegicus [43] = assay: Effect on urinary excretion potassium and sodium after oral administration of 1.6 mg/kg to rats(potassium and sodium excretion in control rat is 0.173+/-0.015); format: functional, Urine
Rattus norvegicus [44] = assay: Ratio of sodium ion/potassium ion concentration in treated rats to that in control rats, at a peroral dose of 0.01 mg/Kg; format: functional

CCCn1c(=O)c2c(nc(C(C3CC3)C3CC3)n2C)n(CCC)c1=O was tested. Which Urine volume (Rattus norvegicus [1]) did it give?
Its Urine volume is 0.96 ml 6hr-1 100g-1.

And the Cr (Rattus norvegicus [2])?
Its Cr is 4.49 mg/dL.

What about the inhibition in vivo at 1 mg/kg (Rattus norvegicus [3]) of the same compound?
Its inhibition in vivo at 1 mg/kg is 6%.

And the T/C (Rattus norvegicus [4])?
Its T/C is 2.14.

And the “Na+/K+” value (Rattus norvegicus [5])?
Its value is 1.21.

And the UN (Rattus norvegicus [6])?
The UN was 136.5 mg/dL.

And the T/C (Rattus norvegicus [7])?
The T/C was 0.97.

And the T/C (Rattus norvegicus [8])?
Its T/C is 1.48.

What about the “Na+/K+” value (Rattus norvegicus [9]) of the same compound?
The value was 0.94.

And the inhibition in vivo at 1 mg/kg (Rattus norvegicus [10])?
Its inhibition in vivo at 1 mg/kg is -15%.

What about the Ki (Adenosine A2 receptor) of the same compound?
Its Ki is 29000 nM.

And the T/C (Rattus norvegicus [11])?
Its T/C is 0.91.

What about the T/C (Rattus norvegicus [12]) of the same compound?
Its T/C is 1.78.

And the T/C (Rattus norvegicus [13])?
Its T/C is 1.8.

And the inhibition in vivo at 1 mg/kg (Rattus norvegicus [14])?
Its inhibition in vivo at 1 mg/kg is 50%.

And the Urine volume (Rattus norvegicus [15])?
Its Urine volume is 1.48 ml 6hr-1 100g-1.

And the inhibition in vivo at 1 mg/kg (Rattus norvegicus [16])?
Its inhibition in vivo at 1 mg/kg is 44%.

What about the UN (Rattus norvegicus [17]) of the same compound?
The UN was 54.1 mg/dL.

What about the Na (Rattus norvegicus [18]) of the same compound?
The Na was 0.174 m equiv 6hr-1 100g-1.

And the Cr (Rattus norvegicus [19])?
Its Cr is 1.63 mg/dL.

What about the Na (Rattus norvegicus [20]) of the same compound?
The Na was 0.271 m equiv 6hr-1 100g-1.

CC(C)Cn1c(=O)n(C)c(=O)c2[nH]c(C3CCCC3)nc21 was tested. Which Cr (Rattus norvegicus [21]) did it give?
Its Cr is 3.08 mg/dL.

And the T/C (Rattus norvegicus [22])?
Its T/C is 1.35.

And the Urine volume (Rattus norvegicus [23])?
The Urine volume was 1.97 ml 6hr-1 100g-1.

What about the Na (Rattus norvegicus [24]) of the same compound?
Its Na is 0.257 m equiv 6hr-1 100g-1.

What about the Cr (Rattus norvegicus [25]) of the same compound?
The Cr was 2.79 mg/dL.

What about the “Na+/K+” value (Rattus norvegicus [26]) of the same compound?
Its value is 1.55.

And the UN (Rattus norvegicus [27])?
Its UN is 106.4 mg/dL.

What about the “Na+/K+” value (Rattus norvegicus [5]) of the same compound?
Its value is 1.57.

And the inhibition in vivo at 0.01 mg/kg (Rattus norvegicus [28])?
The inhibition in vivo at 0.01 mg/kg was 25%.

And the T/C (Rattus norvegicus [8])?
Its T/C is 2.19.

And the Na (Rattus norvegicus [29])?
Its Na is 0.308 m equiv 6hr-1 100g-1.

What about the Urine volume (Rattus norvegicus [30]) of the same compound?
The Urine volume was 1.31 ml 6hr-1 100g-1.

And the Ki (Adenosine A2 receptor)?
The Ki was 880 nM.

What about the inhibition in vivo at 0.1 mg/kg (Rattus norvegicus [31]) of the same compound?
Its inhibition in vivo at 0.1 mg/kg is 45%.

What about the UN (Rattus norvegicus [32]) of the same compound?
The UN was 109.5 mg/dL.

What about the T/C (Rattus norvegicus [33]) of the same compound?
Its T/C is 1.72.

What about the UN (Rattus norvegicus [34]) of the same compound?
The UN was 107.3 mg/dL.

And the inhibition in vivo at 0.01 mg/kg (Rattus norvegicus [35])?
Its inhibition in vivo at 0.01 mg/kg is 26%.

What about the T/C (Rattus norvegicus [13]) of the same compound?
Its T/C is 2.12.

And the T/C (Rattus norvegicus [36])?
The T/C was 1.14.

And the Ki (Adenosine receptor A1)?
Its Ki is 33 nM.

What about the Cr (Rattus norvegicus [37]) of the same compound?
Its Cr is 2.54 mg/dL.

And the inhibition in vivo at 0.1 mg/kg (Rattus norvegicus [38])?
Its inhibition in vivo at 0.1 mg/kg is 35%.

And the inhibition in vivo at 1 mg/kg (Rattus norvegicus [39])?
Its inhibition in vivo at 1 mg/kg is 36%.

What about the inhibition in vivo at 1 mg/kg (Rattus norvegicus [40]) of the same compound?
Its inhibition in vivo at 1 mg/kg is 40%.

What about the T/C (Rattus norvegicus [41]) of the same compound?
Its T/C is 2.12.

And the Urine volume (Rattus norvegicus [42])?
The Urine volume was 1.59 ml 6hr-1 100g-1.

What about the Na (Rattus norvegicus [43]) of the same compound?
Its Na is 0.379 m equiv 6hr-1 100g-1.

And the “Na+/K+” value (Rattus norvegicus [44])?
The value was 1.22.
